Source: patent publication US20090211893A1, “Photo-Activatable Amino Acids” (priority 2005, published 2009)

Columns and labels:
COS7 cells [1] = assay: Protein biosynthesis by incorporation of [3H]Phe; type: cell-based, monkey
Description: (§1) Unnatural amino acids frequently are toxic to cells. To find out if this is the case for photo-amino acids of the invention, we monitored in COS7 cells protein biosynthesis by incorporation of [^3H]Phe and viability by trypan blue exclusion of cells grown in the presence or absence of the photo-amino acids photo-Leu, photo-Met and photo-Ile. Due to the lack of two essential amino acids in the growth medium, protein biosynthesis is reduced to about 65% of that in a full growth medium. […] Although cells grew slightly slower than in full growth medium, viability (Table 2) and cell morphology (not shown) were unaffected.

COS7 cells [2] = assay: Cell viability after UV irradiation by trypan blue exclusion; type: cell-based, monkey
Description: COS7 (monkey kidney) cells were grown in DMEM high glucose (Gibco no. 11995; with L-glutamine and Na-pyruvate)+10% FCS. Typically, 3 cm2 of cells are needed for a cross-linking experiment with detection by western blotting. At about 70%, medium was replaced by LM-4 (DMEM lacking Met, Leu, Ile and Val and phenol red, supplemented with 5% dialyzed FCS) or by LM-2 (LM-4+1 mM of each Ile and Val). Photo-amino acids were added to a final concentration of 4 mM photo-Leu and photo-Ile, 1.7 mM photo-Met and cells were cultivated for further 22 h followed by washing with PBS and UV-irradiation using a 200 W high pressure mercury lamp (Oriel Photomax) with a glass filter to remove wavelengths shorter 310 nm. The samples were placed at a distance of 38 cm to the light source, corresponding to a illuminated area of 105 mm diameter. […] We used an irradiation time 1-3 min for experiments with living cells. […] Lysis of cells, SDS-PAGE and western blotting were done as described^33. For immunoprecipitation, cells were lysed in 20 mM Hepes/NaOH pH 7.4, 100 mM NaCl, 5 mM EDTA, 1% Triton X 100, 0.5% sodium deoxycholate, the lysate was cleared with protein-A beads and incubated with beads that were preincubated with polyclonal anti-myc or anti-HA antibody. Beads were collected and washed three times each with 20 mM Hepes/NaOH pH 7.25, 0.5% CHAPS and with 100 mM Tris-HCl pH 8.3, 150 mM NaCl, 2 mM EDTA, 0.1% w/v SDS, 0.5% w/v Nonidet P40, 0.5% w/v sodiumdeoxycholate. Proteins were eluted from beads by heating with reducing SDS-PAGE sample buffer.
as §1

caveolin-1 = assay: Photo-crosslinking of transfected caveolin-1 in COS7 cells; type: cell-based, human; conditions: irradiated samples, COS7 cells in LM-4
Description: FIG. 3: Photo-crosslinking induced by photo-amino acids. COS7 cells (panels a,b) or HeLa cells (panel c) were grown in LM-4 (panel a) or LM-2 (panels b,c) in the absence or presence of L-photo-Leu (pL), L-photo-Met (pM) or DL-photo-Ile (pl) or mixtures of them (pLM or PLMI) followed by UV irradiation (+) or no irradiation (−). cross-linked products formed after UV-irradiation were detected by SDS-PAGE followed by western blotting using (a) anti-caveolin 1 to detect overexpressed caveolin 1, (b) anti-stomatin to detect endogenous stomatin or (c) anti-EEA1 to detect endogenous EEA1. In panel b, lanes 8 and 9 show cross-linking with two different concentrations of the chemical cross-linker DSS for comparison of cross-linking efficiency. In panel c, photocrosslinking of endogenous EEA1 by photo-Leu and photo-Met is compared to chemical cross-linking using DSS or para-formaldehyde (PFA) as indicated. Note that chemical cross-linking leads to protein aggregates that are not resolvable by SDS-PAGE while photocrosslinking identifies more than six discrete cross-linked bands.
COS7 (monkey kidney) cells were grown in DMEM high glucose (Gibco no. 11995; with L-glutamine and Na-pyruvate)+10% FCS. Typically, 3 cm2 of cells are needed for a cross-linking experiment with detection by western blotting. At about 70%, medium was replaced by LM-4 (DMEM lacking Met, Leu, Ile and Val and phenol red, supplemented with 5% dialyzed FCS) or by LM-2 (LM-4+1 mM of each Ile and Val). Photo-amino acids were added to a final concentration of 4 mM photo-Leu and photo-Ile, 1.7 mM photo-Met and cells were cultivated for further 22 h followed by washing with PBS and UV-irradiation using a 200 W high pressure mercury lamp (Oriel Photomax) with a glass filter to remove wavelengths shorter 310 nm. The samples were placed at a distance of 38 cm to the light source, corresponding to a illuminated area of 105 mm diameter. […] We used an irradiation time 1-3 min for experiments with living cells. […] Lysis of cells, SDS-PAGE and western blotting were done as described^33. […]

COS7 cells [3] = assay: Cell viability after UV irradiation by trypan blue exclusion; type: cell-based, monkey; remark: listed apart in the source

CC1(CCC(N)C(=O)O)N=N1 [photo-Met, L-2-amino-5,5′-azi-hexanoic acid]
Protein synthesis (COS7 cells [1]; LM-2 medium supplement, value in full DMEM medium set to 100, average ± SD of triplicate): 76.0 ± 6.4
effect on protein biosynthesis (COS7 cells [1]; addition to LM-2 medium): increased protein biosynthesis
Cell viability (COS7 cells [2]; 1 min UV): 99.4 ± 0.5%
Cell viability (COS7 cells [2]; 1 min UV + 1 h chase): 96.1 ± 1.3%
Cell viability (COS7 cells [2]; 3 min UV): 99.5 ± 0.4%
Cell viability (COS7 cells [2]; 3 min UV + 1 h chase): 91.9 ± 6.8%
Cell viability (COS7 cells [2]; no UV + 1 h chase at 37 degree Celsius in PBS): 99.4 ± 0.4%
Cell viability (COS7 cells [2]; no UV, percent ± SD of viable cells): 99.8 ± 0.3%
formation of covalent caveolin dimers upon UV irradiation (caveolin-1): significant formation of a cross-linked dimer
Cell viability (COS7 cells [3]; 10 min UV): 99.4 ± 0.3%
Cell viability (COS7 cells [3]; 10 min UV + 1 h chase): 91.9 ± 1.4%
Cell viability (COS7 cells [3]; 30 min UV): 98.7 ± 0.4%
Cell viability (COS7 cells [3]; 30 min UV + 1 h chase): 17.4 ± 5.3%
